Values after ≈ are worked out from the molar mass of the structure shown.

From ChEMBL document CHEMBL4619754, “Discovery of novel, potent, and orally bioavailable pyrido[2,3-d][1]benzazepin-6-one antagonists for parathyroid hormone receptor 1” (Bioorg Med Chem, 2020) come the findings set out here.

Data set [1] in a line: Drug degradation in HCL/CH2Cl2 by TLC analysis. The format is physicochemical. Particulars: read-out: Drug degradation.
Data set [2] is described as follows: Metabolic stability in rat liver microsomes assessed as parent compound remaining at 1 uM in presence of NADPH generating system measured after 20 mins by LC-MS/MS analysis. Format: ADME, Microsome. As to conditions: read-out: Stability.
Data set [3] in a line: Solubility of the compound in JP2 buffer at pH 6.8. Format: physicochemical.
The nature of data set [4]: Solubility of the compound in JP1 fluid at pH 1.2. The format is physicochemical.
Data set [5] addresses T1, Parathyroid hormone/parathyroid hormone-related peptide receptor (Homo sapiens, UniProt Q03431).
T1 sequence (Q03431 whole entry): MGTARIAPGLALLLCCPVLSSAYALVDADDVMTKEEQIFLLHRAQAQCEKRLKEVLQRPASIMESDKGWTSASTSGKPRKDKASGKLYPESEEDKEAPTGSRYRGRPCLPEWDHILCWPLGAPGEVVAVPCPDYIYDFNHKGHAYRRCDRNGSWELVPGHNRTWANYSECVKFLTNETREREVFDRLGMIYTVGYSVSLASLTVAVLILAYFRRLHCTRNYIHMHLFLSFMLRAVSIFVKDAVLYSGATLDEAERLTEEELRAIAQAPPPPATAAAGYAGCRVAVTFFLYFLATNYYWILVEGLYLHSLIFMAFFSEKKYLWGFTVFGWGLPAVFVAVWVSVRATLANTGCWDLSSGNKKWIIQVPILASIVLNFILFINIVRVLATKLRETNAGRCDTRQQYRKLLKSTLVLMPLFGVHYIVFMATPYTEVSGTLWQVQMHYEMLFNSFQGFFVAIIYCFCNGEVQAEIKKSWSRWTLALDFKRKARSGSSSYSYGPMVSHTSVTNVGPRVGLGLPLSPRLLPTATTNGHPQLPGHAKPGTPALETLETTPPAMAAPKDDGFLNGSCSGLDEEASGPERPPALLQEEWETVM
The data set can be described thus: Antagonist activity at PTHR1 (unknown origin) expressed in CHOK1 cells co-expressing Gs/Gq assessed as reduction in human PTH (1 to 34 residues)-induced cAMP level incubated for 30 mins. Format: functional, cell-based, CHO-K1. For orientation: Changes in cAMP serve as a functional read-out for many G protein-coupled receptors.

A short description of data set [6]: Plasma clearance in Sprague-Dawley rat at 1 mg/kg, iv by LC-MS/MS analysis. The format is ADME, organism-based.
Data set [7] can be described thus: AUClast in Sprague-Dawley rat at 5 mg/kg, po by LC-MS/MS analysis. Particulars: in vivo. The format is ADME, organism-based. Further details: dose 5 mg/kg, time 0 - last, route oral.
A further data set deals with CYP3A4 (Homo sapiens, UniProt P08684). As to the kind of experiment: Inhibition of CYP3A4 (unknown origin) at 10 uM relative to control. Format: ADME.
Chain of CYP3A4 (P08684 whole entry): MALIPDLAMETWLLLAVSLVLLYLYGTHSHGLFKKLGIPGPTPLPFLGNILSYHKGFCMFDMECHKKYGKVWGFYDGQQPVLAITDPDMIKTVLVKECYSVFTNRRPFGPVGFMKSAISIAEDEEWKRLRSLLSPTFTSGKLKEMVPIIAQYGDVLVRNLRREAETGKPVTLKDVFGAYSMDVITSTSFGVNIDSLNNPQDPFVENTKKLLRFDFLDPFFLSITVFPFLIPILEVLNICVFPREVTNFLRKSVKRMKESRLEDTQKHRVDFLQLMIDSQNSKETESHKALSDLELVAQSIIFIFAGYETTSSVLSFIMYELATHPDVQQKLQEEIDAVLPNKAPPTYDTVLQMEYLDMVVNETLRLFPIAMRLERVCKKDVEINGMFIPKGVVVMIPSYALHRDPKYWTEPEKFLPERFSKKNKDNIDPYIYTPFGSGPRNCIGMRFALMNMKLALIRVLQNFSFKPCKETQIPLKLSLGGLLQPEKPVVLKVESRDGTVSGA
A further data set deals with CYP2C19 (Homo sapiens, UniProt P33261). As to the kind of experiment: Inhibition of CYP2C19 (unknown origin) at 10 uM relative to control. Format: ADME.
Chain of CYP2C19 (P33261 whole entry): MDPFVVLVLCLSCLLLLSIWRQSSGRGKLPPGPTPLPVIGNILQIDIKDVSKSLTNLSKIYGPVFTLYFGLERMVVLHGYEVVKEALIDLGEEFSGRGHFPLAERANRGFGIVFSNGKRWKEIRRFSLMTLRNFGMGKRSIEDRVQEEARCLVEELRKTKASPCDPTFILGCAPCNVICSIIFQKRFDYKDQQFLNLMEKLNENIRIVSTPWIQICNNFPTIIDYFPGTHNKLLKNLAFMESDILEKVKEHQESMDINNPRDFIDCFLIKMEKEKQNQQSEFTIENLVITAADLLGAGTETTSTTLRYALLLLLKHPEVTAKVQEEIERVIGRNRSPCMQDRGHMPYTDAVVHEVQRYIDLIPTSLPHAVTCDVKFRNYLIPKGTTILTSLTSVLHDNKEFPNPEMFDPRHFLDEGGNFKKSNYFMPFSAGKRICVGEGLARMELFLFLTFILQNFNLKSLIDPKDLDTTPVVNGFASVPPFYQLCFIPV
The nature of data set [8]: Oral bioavailability in Sprague-Dawley rat at 10 mg/kg by LC-MS/MS analysis. As to conditions: in vivo. The format is ADME, organism-based.
A further data set deals with CYP2D6 (Homo sapiens, UniProt P10635). The data set can be described thus: Inhibition of CYP2D6 (unknown origin) at 10 uM relative to control. Format: ADME.
Chain of CYP2D6 (P10635 whole entry): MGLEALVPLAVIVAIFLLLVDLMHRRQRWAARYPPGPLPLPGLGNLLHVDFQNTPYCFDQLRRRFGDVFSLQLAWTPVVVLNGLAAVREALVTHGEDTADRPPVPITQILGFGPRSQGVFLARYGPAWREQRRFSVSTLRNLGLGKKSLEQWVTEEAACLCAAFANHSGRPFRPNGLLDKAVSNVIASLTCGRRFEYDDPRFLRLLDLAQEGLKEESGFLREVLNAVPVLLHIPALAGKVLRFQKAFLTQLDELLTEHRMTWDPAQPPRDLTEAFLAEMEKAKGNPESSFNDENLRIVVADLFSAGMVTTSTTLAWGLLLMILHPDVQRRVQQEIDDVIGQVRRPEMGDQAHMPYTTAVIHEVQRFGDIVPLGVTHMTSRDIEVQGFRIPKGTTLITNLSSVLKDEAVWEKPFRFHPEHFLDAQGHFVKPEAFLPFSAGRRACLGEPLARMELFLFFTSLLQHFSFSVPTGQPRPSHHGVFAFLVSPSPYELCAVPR
Another data set concerns the target CYP2C9 (Homo sapiens, UniProt P11712). The data set can be described thus: Inhibition of CYP2C9 (unknown origin) at 10 uM relative to control. The format is ADME.
The nature of data set [9]: 1-Octanol/PBS buffer distribution coefficient, log D of the compound at pH 7.4. Format: physicochemical.
Another data set concerns the target T2, CYP1A2 (Homo sapiens, UniProt P05177).
T2 sequence (P05177 whole entry): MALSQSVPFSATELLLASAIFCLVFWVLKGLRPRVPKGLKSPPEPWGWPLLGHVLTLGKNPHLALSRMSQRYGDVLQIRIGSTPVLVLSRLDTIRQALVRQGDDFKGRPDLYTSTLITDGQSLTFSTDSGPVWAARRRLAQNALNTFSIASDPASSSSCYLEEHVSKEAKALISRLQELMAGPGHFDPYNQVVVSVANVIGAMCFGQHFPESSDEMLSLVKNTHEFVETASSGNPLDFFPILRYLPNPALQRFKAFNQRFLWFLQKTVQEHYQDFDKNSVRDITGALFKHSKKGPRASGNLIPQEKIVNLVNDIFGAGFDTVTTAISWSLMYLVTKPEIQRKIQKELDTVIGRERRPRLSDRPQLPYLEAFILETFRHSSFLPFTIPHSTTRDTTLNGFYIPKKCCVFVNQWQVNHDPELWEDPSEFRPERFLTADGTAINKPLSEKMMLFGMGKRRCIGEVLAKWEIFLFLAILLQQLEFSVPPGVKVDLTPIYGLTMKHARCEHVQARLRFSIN
As to the kind of experiment: Inhibition of CYP1A2 (unknown origin) at 10 uM relative to control. Format: ADME.

The nature of data set [10]: Elimination half life in Sprague-Dawley rat at 5 mg/kg, po by LC-MS/MS analysis. As to conditions: in vivo, read-out: BBB (converted). Format: ADME, organism-based.
A further data set deals with T3, CYP2C8 (Homo sapiens, UniProt P10632).
T3 sequence (P10632 whole entry): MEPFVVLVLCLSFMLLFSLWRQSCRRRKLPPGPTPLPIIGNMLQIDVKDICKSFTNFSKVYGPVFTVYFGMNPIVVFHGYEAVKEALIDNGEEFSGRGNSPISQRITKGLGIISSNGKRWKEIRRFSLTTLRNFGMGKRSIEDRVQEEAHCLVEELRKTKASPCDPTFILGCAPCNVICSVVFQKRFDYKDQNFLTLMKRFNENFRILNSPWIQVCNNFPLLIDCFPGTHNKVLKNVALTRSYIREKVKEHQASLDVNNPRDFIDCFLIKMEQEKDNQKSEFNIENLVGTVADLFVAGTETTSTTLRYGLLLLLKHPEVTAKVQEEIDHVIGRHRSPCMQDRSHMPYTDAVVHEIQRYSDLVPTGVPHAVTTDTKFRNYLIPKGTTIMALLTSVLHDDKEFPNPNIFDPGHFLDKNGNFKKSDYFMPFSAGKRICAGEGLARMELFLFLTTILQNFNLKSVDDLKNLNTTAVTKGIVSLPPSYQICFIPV
As to the kind of experiment: Inhibition of CYP2C8 (unknown origin) at 10 uM relative to control. Format: ADME.

The nature of data set [11]: Volume of distribution at steady state in Sprague-Dawley rat at 1 mg/kg, iv by LC-MS/MS analysis. The format is ADME, organism-based. As to conditions: in vivo, read-out: Vdss.

Chain of CYP2C9 (P11712 whole entry): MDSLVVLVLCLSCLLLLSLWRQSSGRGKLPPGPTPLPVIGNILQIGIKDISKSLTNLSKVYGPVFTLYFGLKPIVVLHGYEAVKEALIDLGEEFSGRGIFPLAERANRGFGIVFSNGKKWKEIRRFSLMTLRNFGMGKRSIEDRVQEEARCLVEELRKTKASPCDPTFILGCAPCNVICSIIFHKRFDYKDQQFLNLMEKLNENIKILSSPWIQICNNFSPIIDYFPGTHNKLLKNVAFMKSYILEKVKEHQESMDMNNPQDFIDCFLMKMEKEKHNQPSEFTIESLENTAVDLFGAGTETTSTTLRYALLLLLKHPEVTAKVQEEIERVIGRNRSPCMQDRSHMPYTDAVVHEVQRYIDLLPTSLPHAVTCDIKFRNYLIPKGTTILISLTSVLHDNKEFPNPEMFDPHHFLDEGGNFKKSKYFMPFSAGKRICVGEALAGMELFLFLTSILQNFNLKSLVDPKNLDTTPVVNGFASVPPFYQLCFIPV

Regarding `CC1(C)N=C(C2CCCCC2)c2ccc(C#N)cc2N(c2ccc(NCCNC3CCOCC3)cc2)C1=O`, in data set [1], the degraded worked out at 100%. Moreover, in [2], the remaining at 20 min, 1 µM came to 28%.

One may read the solubility as the dissolved amount per volume that the medium holds. A low value points to little dissolved substance. As to `CC1(C)C(=O)N(c2ccc(NCCNC3CCOCC3)cc2)c2cc(F)ccc2-c2cc(Cl)cnc21`, the solubility in data set [3] is 380 µg/mL (≈ 747 µM); in data set [4] it was 960 µg/mL (≈ 1890 µM). For the same compound, in data set [2], the remaining at 20 min, 1 µM came to 42%.

One may read the IC50 as the point on the concentration scale where inhibition reaches its midpoint. Regarding `CC1(C)C=C(C2CCCCC2)c2ccc(C#N)cc2N(c2ccc(NCCNC3CCOCC3)cc2)C1=O`, in [5], the IC50 is 8.8 µM. In addition, the remaining at 20 min, 1 µM in data set [2] came to 97%.

Consider `CC1(C)C(=O)N(c2ccc(NCCNC3CCOCC3)cc2)c2cc(Cl)ccc2-c2cc(F)cnc21`, for which the solubility came out at 470 µg/mL (≈ 923 µM) in [3] and 920 µg/mL (≈ 1810 µM) in [4]. Besides, the remaining at 20 min, 1 µM in [2] worked out at 19%.

With `CC1(C)C(=O)N(c2ccc(NCCNC3CCOCC3)cc2)c2cc(Cl)ccc2-c2cc(Cl)ccc21`, the figures for the solubility in [3] and in data set [4] were 4.7 µg/mL (≈ 8.96 µM) and 36 µg/mL (≈ 68.6 µM), respectively. Also, the remaining at 20 min, 1 µM in [2] is 75%.

As for `CC(C)N1N=C(C2CCCCC2)c2ccc(Cl)cc2N(c2ccc(NCCNC3CCOCC3)cn2)C1=O`, the IC50 in data set [5] stood at 4.37 µM.

With `COc1ccc2c(c1)N(c1ccc(NCCNC3CCOCC3)cc1)C(=O)C(C)(C)c1ncc(Cl)cc1-2`, the solubility in [3] was found to be 3.8 µg/mL (≈ 7.29 µM); in data set [4], 250 µg/mL (≈ 480 µM). Further, the remaining at 20 min, 1 µM in data set [2] was found to be 59%.

For the compound `CC1(C)C(=O)N(c2ccc(NCCNC3CCOCC3)cc2)c2cc(C#N)ccc2-c2cc(Cl)cnc21`, the solubility is 720 µg/mL (≈ 1400 µM) in data set [3] and 990 µg/mL (≈ 1920 µM) in [4]. The remaining at 20 min, 1 µM in [2] amounted to 34%.

`Cc1ccc2c(c1)N(c1ccc(NCCNC3CCOCC3)cc1)C(=O)C(C)(C)c1ncc(Cl)cc1-2`: the solubility in data set [3] is 24 µg/mL (≈ 47.5 µM); in data set [4], 870 µg/mL (≈ 1720 µM). The remaining at 20 min, 1 µM in data set [2] was determined as 52%.

On to `CC1(C)C=C(C2CCCCC2)c2ccc(Cl)cc2N(c2ccc(NCCNC3CCOCC3)cc2)C1=O`, for which, in data set [5], the IC50 is 0.97 µM. Besides, the remaining at 20 min, 1 µM in data set [2] amounted to 58%.

In general, clearance refers to the volume of plasma or blood freed of the substance per unit of time. The low end stands for inefficient removal, the high end for efficient removal. What is called AUC(0-t) is the area under the concentration-time curve up to a stated or last time point. Read a low AUC(0-t) as low exposure. One may read the inhibition as the change of the read-out against control, counted positive when it falls. A lower inhibition goes with a response near the control. Broadly, the bioavailability is the share of a dose that reaches the circulation, judged against a reference dose that is usually intravenous. By logD is commonly meant the decadic logarithm of the distribution of all forms, ionised or not, between an organic phase and buffer at a given pH. Lower therefore signals a more hydrophilic compound. The compound `CC1(C)C(=O)N(c2ccc(NCCNC3CCOCC3)cc2)c2cc(Cl)ccc2-c2cc(Cl)cnc21` showed a clearance in data set [6] of 39 mL/min/kg. Moreover, in data set [7], the AUC(0-t) came out at 2500 ng·h/mL. The inhibition at 10 µM against CYP3A4, at CYP2C19, on CYP2D6, at CYP2C9, against CYP1A2 and against CYP2C8 was less than 50% in each case. Further, the bioavailability in data set [8] turned out to be 61%. Moreover, the solubility is 77 µg/mL (≈ 147 µM) in data set [3] and 570 µg/mL (≈ 1080 µM) in [4]. Moreover, the logD in [9] was 3.5. Also, the half-life in [10] was 13.1 h. For the same compound, the remaining at 20 min, 1 µM in [2] was determined as 65%. Further, in data set [11], the Vd was 29.4 L/kg.

Take `Cc1cnc2c(c1)-c1ccc(Cl)cc1N(c1ccc(NCCNC3CCOCC3)cc1)C(=O)C2(C)C`: the solubility is 510 µg/mL (≈ 1010 µM) in [3] and more than 980 µg/mL in [4]. In data set [2], the remaining at 20 min, 1 µM was 62%.

For the compound `CC1(C)C(=O)N(c2ccc(NCCNC3CCOCC3)cc2)c2cc(Cl)ccc2-c2ccccc21`, the 50% inhibitory concentration (IC50) in data set [5] was 3.2 µM. Also, the solubility turned out to be 9.1 µg/mL (≈ 18.6 µM) in [3] and 83 µg/mL (≈ 169 µM) in [4]. Further, in [2], the remaining at 20 min, 1 µM worked out at 21%.
